Measurements published in US6432430B1, “Exfoliating scrub with niacinamide” (priority 2000, dated 2002).

Test system: acne
Test: topical use of the exfoliating scrub on acne, washed off immediately after use
Format: in vivo
Conditions: niacinamide in exfoliating cream, cream immediately removed
Description: The cream is applied to the affected area, typically the face, and is used in the same manner as other exfoliating scrubs by massaging the cream into the skin. The abrasive agent acts to remove dead skin cells and the niacinamide is brought into direct contact with the affected areas. The cream is then removed by washing the area with water, and if desired, a mild soap. […] The frequency with which the exfoliating scrub is applied depends upon several factors, including the severity of the skin condition, and the user's skin type and sensitivity. Patients having oily skin may use the scrub as often as once to twice per day. Patients having dry skin or sensitive skin generally will use the scrub less often. The precise frequency is determined on a case by case basis influenced by the actual results achieved. As described above, the cream is topically applied to the area to be treated and is gently massaged into the skin. The cream is then immediately removed, preferably with warm water. The skin may beneficially be thoroughly cleansed prior to application of the cream of the present invention. In all cases the scrub is washed from the skin immediately after use.

With `NC(=O)c1cccnc1` [niacinamide] the “therapeutic effect on acne” value was “beneficial therapeutic effect on acne”.
